Data as given in the supplement of paper PMC11061612.

Key:
Experiment in all cases: Bliss excess, mean over the matrix (fraction); higher = more synergy
[1] = test system: HO-1-N-1 (Oral Cavity Carcinoma)
Procedure, shortened: (§1)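 Cell lines in DMEM/F12 or RPMI with 10% FBS were plated in 1536-well plates, held 24 hours at 37°C, 5% CO2, then given two-drug dose matrices for 72 hours (DMSO typically 0.2%). Viability was read by CellTiter-Glo 2.0 luminescence and scaled as inhibition from 0 (vehicle wells) to 1 (blank wells). Combination Emax is the second-highest inhibition in the matrix; Bliss excess is observed combination effect minus expected EA + EB − EA·EB, EA and EB being single-agent effects.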

[2] = test system: KP-1N (Pancreatic Carcinoma)
Procedure, shortened: as §1

[3] = test system: LNCaP-Clone-FGC (Prostate Carcinoma)
Procedure, shortened: as §1

AGS (Gastric Carcinoma) = test system: AGS (Gastric Carcinoma)
Procedure, shortened: as §1

[4] = test system: TCCSUP (Bladder Carcinoma)
Procedure, shortened: as §1

[5] = test system: TE-15 (Esophageal Squamous Cell Carcinoma)
Procedure, shortened: as §1

[6] = test system: RO82-W-1 (Thyroid Gland Carcinoma)
Procedure, shortened: as §1

[7] = test system: NCI-H2085 (Non-Small Cell Lung Carcinoma)
Procedure, shortened: as §1

[8] = test system: LU-135 (Small Cell Lung Carcinoma)
Procedure, shortened: as §1

[9] = test system: CAL-148 (Breast Carcinoma)
Procedure, shortened: as §1

NOS-1 (Osteosarcoma) = test system: NOS-1 (Osteosarcoma)
Procedure, shortened: as §1

[10] = test system: SK-ES-1 (Ewing's Sarcoma)
Procedure, shortened: as §1

`C=CCn1c(=O)c2cnc(Nc3ccc(N4CCN(C)CC4)cc3)nc2n1-c1cccc(C(C)(C)O)n1` [AZD1775] + O=C(c1cc(Cc2n[nH]c(=O)c3ccccc23)ccc1F)N1CCN(C(=O)C2CC2)CC1 [Olaparib] (first compound max 1 µM, partner max 10 µM) was tested, and the Bliss excess [1] was 0.0217, the Bliss excess [2] was -0.0239 and the Bliss excess [3] was -0.0242. For the same compound, the Bliss excess (AGS (Gastric Carcinoma)) was 0.0116, the Bliss excess [4] was 0.0107 and the Bliss excess [5] was -0.106. The Bliss excess [6] was -0.0724, the Bliss excess [7] was -0.0353 and the Bliss excess [8] was -0.0249. For the same compound, the Bliss excess [9] was 0.0068, the Bliss excess (NOS-1 (Osteosarcoma)) was 0.0285 and the Bliss excess [10] was 0.0511.
`CCN(CCO)CCCOc1ccc2c(Nc3cc(CC(=O)Nc4cccc(F)c4)[nH]n3)ncnc2c1` [AZD2811] + C=CCn1c(=O)c2cnc(Nc3ccc(N4CCN(C)CC4)cc3)nc2n1-c1cccc(C(C)(C)O)n1 [AZD1775] (first compound max 1 µM, partner max 1 µM) gave a Bliss excess [1] of -0.0785, a Bliss excess [2] of 0.0124 and a Bliss excess [3] of 0.0001. The Bliss excess (AGS (Gastric Carcinoma)) was 0.0156, the Bliss excess [4] was -0.0204 and the Bliss excess [5] was -0.0576. The Bliss excess [6] was -0.063, the Bliss excess [7] was 0.0061 and the Bliss excess [8] was -0.0346. For the same compound, the Bliss excess [9] was -0.0165, the Bliss excess (NOS-1 (Osteosarcoma)) was 0.0045 and the Bliss excess [10] was 0.028.
With `CCN(CCO)CCCOc1ccc2c(Nc3cc(CC(=O)Nc4cccc(F)c4)[nH]n3)ncnc2c1` [AZD2811] + C[C@@H]1COCCN1C2=NC(=NC(=C2)C3(CC3)[S@](=N)(=O)C)C4=C5C=CNC5=NC=C4 [AZD6738] (first compound max 1 µM, 7x7, partner max 10 µM) the Bliss excess [1] was -0.053, the Bliss excess [2] was -0.0189 and the Bliss excess [3] was -0.0447. The Bliss excess (AGS (Gastric Carcinoma)) was -0.0191, the Bliss excess [4] was 0.0006 and the Bliss excess [5] was -0.0063. The Bliss excess [6] was -0.0543, the Bliss excess [7] was -0.0913 and the Bliss excess [8] was -0.0552. The Bliss excess [9] was -0.0252, the Bliss excess (NOS-1 (Osteosarcoma)) was 0.0036 and the Bliss excess [10] was 0.0382.
`CCN(CCO)CCCOc1ccc2c(Nc3cc(CC(=O)Nc4cccc(F)c4)[nH]n3)ncnc2c1` [AZD2811] + O=C(c1cc(Cc2n[nH]c(=O)c3ccccc23)ccc1F)N1CCN(C(=O)C2CC2)CC1 [Olaparib] (first compound max 1 µM, 7x7, partner max 10 µM) gave a Bliss excess [1] of -0.0329, a Bliss excess [2] of -0.0175 and a Bliss excess [3] of -0.0009. The Bliss excess (AGS (Gastric Carcinoma)) was 0.0484, the Bliss excess [4] was 0.0238 and the Bliss excess [5] was -0.0125. The Bliss excess [6] was -0.0564, the Bliss excess [7] was -0.0109 and the Bliss excess [8] was -0.0632. For the same compound, the Bliss excess [9] was 0.0319, the Bliss excess (NOS-1 (Osteosarcoma)) was 0.0085 and the Bliss excess [10] was -0.0075.
For `CN(CCO)CC[C@H](CSc1ccccc1)Nc1ccc(S(=O)(=O)NC(=O)c2ccc(N3CCC([C@@H](O)c4ccccc4-c4ccc(Cl)cc4)CC3)cc2)cc1S(=O)(=O)C(F)(F)F` [AZD4320] + C1CN(CCC1(C(=O)N[C@@H](CCO)C2=CC=C(C=C2)Cl)N)C3=NC=NC4=C3C=CN4 [Capivasertib] (first compound max 1 µM, 7x7, partner max 3 µM), the Bliss excess [1] was -0.0187, the Bliss excess [2] was -0.0389 and the Bliss excess [3] was -0.0239. For the same compound, the Bliss excess (AGS (Gastric Carcinoma)) was -0.0081, the Bliss excess [4] was -0.0568 and the Bliss excess [5] was -0.042. For the same compound, the Bliss excess [6] was -0.0513, the Bliss excess [7] was -0.0401 and the Bliss excess [8] was 0.0051. It also gave a Bliss excess [9] of 0.0346, a Bliss excess (NOS-1 (Osteosarcoma)) of -0.0386 and a Bliss excess [10] of 0.0827.
`CN(CCO)CC[C@H](CSc1ccccc1)Nc1ccc(S(=O)(=O)NC(=O)c2ccc(N3CCC([C@@H](O)c4ccccc4-c4ccc(Cl)cc4)CC3)cc2)cc1S(=O)(=O)C(F)(F)F` [AZD4320] + C=CCn1c(=O)c2cnc(Nc3ccc(N4CCN(C)CC4)cc3)nc2n1-c1cccc(C(C)(C)O)n1 [AZD1775] (first compound max 1 µM, partner max 1 µM) showed a Bliss excess [1] of -0.0023, a Bliss excess [2] of -0.0325 and a Bliss excess [3] of -0.0222. The Bliss excess (AGS (Gastric Carcinoma)) was 0.0191, the Bliss excess [4] was 0.0373 and the Bliss excess [5] was -0.0137. The Bliss excess [6] was -0.0364, the Bliss excess [7] was -0.0212 and the Bliss excess [8] was 0.0636. The Bliss excess [9] was -0.0033, the Bliss excess (NOS-1 (Osteosarcoma)) was 0.0894 and the Bliss excess [10] was 0.093.
`CN(CCO)CC[C@H](CSc1ccccc1)Nc1ccc(S(=O)(=O)NC(=O)c2ccc(N3CCC([C@@H](O)c4ccccc4-c4ccc(Cl)cc4)CC3)cc2)cc1S(=O)(=O)C(F)(F)F` [AZD4320] + CCN(CCO)CCCOc1ccc2c(Nc3cc(CC(=O)Nc4cccc(F)c4)[nH]n3)ncnc2c1 [AZD2811] (first compound max 1 µM, 7x7, partner max 1 µM) gave a Bliss excess [1] of -0.0255, a Bliss excess [2] of -0.0317 and a Bliss excess [3] of -0.0105. The Bliss excess (AGS (Gastric Carcinoma)) was 0.192, the Bliss excess [4] was -0.0194 and the Bliss excess [5] was -0.0393. For the same compound, the Bliss excess [6] was 0.0032, the Bliss excess [7] was -0.0145 and the Bliss excess [8] was -0.0124. It also gave a Bliss excess [9] of -0.0027, a Bliss excess (NOS-1 (Osteosarcoma)) of 0.0616 and a Bliss excess [10] of 0.0156.
Work on `CN(CCO)CC[C@H](CSc1ccccc1)Nc1ccc(S(=O)(=O)NC(=O)c2ccc(N3CCC([C@@H](O)c4ccccc4-c4ccc(Cl)cc4)CC3)cc2)cc1S(=O)(=O)C(F)(F)F` [AZD4320] + CN(C)CCCOc1ccc(-c2ccc3ncc4c(c3c2)n(C2CCOCC2)c(=O)n4C)cn1 [AZD0156] (first compound max 1 µM, 7x7, partner max 1 µM) yielded a Bliss excess [1] of -0.0011, a Bliss excess [2] of -0.0481 and a Bliss excess [3] of -0.089. It also gave a Bliss excess (AGS (Gastric Carcinoma)) of -0.0561, a Bliss excess [4] of -0.0227 and a Bliss excess [5] of -0.0455. For the same compound, the Bliss excess [6] was -0.0258, the Bliss excess [7] was -0.0242 and the Bliss excess [8] was 0.0332. It also gave a Bliss excess [9] of 0.0183, a Bliss excess (NOS-1 (Osteosarcoma)) of 0.0203 and a Bliss excess [10] of 0.047.
Work on `CN(CCO)CC[C@H](CSc1ccccc1)Nc1ccc(S(=O)(=O)NC(=O)c2ccc(N3CCC([C@@H](O)c4ccccc4-c4ccc(Cl)cc4)CC3)cc2)cc1S(=O)(=O)C(F)(F)F` [AZD4320] + C[C@@H]1COCCN1C2=NC(=NC(=C2)C3(CC3)[S@](=N)(=O)C)C4=C5C=CNC5=NC=C4 [AZD6738] (first compound max 1 µM, 7x7, partner max 10 µM) yielded a Bliss excess [1] of 0.026, a Bliss excess [2] of -0.0135 and a Bliss excess [3] of -0.0328. The Bliss excess (AGS (Gastric Carcinoma)) was -0.0162, the Bliss excess [4] was 0.009 and the Bliss excess [5] was -0.041. The Bliss excess [6] was -0.0025, the Bliss excess [7] was -0.0912 and the Bliss excess [8] was 0.0417. For the same compound, the Bliss excess [9] was -0.0231, the Bliss excess (NOS-1 (Osteosarcoma)) was 0.038 and the Bliss excess [10] was 0.0339.
